Results reported in patent US11465994B2, “MGluR7 agonist compounds for treating mGluR7-regulated diseases, disorders, or conditions” (Takeda Pharmaceutical Company Limited, priority 2016, dated 2022).
Read-outs that look alike come from different tables or passages of the source.

How the values were obtained:
Type in all cases: cell-based
mGluR8 = molecular target: T1, mGluR8 (Homo sapiens, UniProt O00222); assay: Selectivity HTRF cAMP assay in CHO-mGluR8 transients
T1 construct: expressed in transfected cells; host or cells: CHO (transient transfection)
T1 sequence (O00222 34-908, species assumed): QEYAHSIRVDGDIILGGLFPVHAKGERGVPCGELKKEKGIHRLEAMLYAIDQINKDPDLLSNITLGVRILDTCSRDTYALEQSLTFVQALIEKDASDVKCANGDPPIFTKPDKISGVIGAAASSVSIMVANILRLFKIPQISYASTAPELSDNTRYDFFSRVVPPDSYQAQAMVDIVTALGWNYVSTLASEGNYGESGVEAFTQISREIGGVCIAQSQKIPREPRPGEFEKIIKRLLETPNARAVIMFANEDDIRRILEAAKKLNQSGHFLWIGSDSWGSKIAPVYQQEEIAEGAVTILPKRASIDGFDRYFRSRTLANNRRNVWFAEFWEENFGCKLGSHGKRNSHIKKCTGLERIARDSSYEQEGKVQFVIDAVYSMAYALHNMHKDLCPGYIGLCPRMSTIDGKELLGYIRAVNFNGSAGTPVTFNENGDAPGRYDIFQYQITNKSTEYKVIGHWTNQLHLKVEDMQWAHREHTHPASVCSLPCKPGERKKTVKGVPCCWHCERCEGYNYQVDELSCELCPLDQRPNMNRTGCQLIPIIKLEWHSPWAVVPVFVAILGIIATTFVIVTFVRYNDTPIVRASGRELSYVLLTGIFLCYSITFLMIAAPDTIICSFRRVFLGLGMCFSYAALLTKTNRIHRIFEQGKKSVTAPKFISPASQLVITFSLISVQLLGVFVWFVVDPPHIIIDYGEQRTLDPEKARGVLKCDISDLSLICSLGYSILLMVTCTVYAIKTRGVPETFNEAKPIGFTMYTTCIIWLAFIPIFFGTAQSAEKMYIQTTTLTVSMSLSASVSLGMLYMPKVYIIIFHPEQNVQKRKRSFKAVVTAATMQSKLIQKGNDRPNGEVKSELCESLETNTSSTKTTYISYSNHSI
Experimental: (§1) Compound activities were determined in CHO-CRE-luc cells stably expressing hu/mo mGluR7, using a cAMP reporter gene assay (Steady Glo, Promega). Selectivity was assessed in stable CHO-mGluR4 cells (DiscoverX) and CHO-mGluR8 transients using an HTRF cAMP assay (Cisbio).
(§2) The activation of mGluR7 was measured by the decreased forskolin stimulated luminescence signal. […] Forskolin stimulated luminescence signal was not reduced for mGluR4 and mGluR8.

mouse mGluR7 = molecular target: T2, mouse mGluR7 (Mus musculus, UniProt Q68ED2); assay: cAMP reporter gene assay in CHO-CRE-luc cells stably expressing mouse mGluR7
T2 construct: expressed in transfected cells
T2 sequence (Q68ED2 35-915): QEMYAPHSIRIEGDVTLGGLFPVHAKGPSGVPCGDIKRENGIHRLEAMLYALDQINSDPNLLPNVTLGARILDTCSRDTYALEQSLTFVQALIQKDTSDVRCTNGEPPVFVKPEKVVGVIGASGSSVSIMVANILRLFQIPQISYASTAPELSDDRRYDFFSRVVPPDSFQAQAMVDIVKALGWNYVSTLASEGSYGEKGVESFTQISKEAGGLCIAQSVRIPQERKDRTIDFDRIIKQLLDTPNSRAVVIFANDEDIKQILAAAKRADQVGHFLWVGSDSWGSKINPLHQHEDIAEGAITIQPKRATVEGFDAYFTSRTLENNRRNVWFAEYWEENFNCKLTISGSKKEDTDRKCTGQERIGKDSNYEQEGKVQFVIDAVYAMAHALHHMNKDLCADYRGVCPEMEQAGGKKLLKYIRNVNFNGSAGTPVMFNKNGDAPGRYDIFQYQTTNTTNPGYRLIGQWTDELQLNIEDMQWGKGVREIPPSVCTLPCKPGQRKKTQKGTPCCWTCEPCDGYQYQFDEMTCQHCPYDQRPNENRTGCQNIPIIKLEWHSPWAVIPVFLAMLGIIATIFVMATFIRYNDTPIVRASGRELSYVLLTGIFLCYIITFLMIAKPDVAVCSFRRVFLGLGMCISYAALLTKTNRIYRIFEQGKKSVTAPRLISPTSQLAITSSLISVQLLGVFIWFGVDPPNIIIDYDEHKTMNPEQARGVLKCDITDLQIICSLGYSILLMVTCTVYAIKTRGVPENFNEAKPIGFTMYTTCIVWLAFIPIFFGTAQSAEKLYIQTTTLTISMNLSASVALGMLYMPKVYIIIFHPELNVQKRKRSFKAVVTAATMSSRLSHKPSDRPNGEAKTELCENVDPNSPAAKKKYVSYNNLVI
Experimental: as §1, §2

[1] = test system: CA1 pyramidal cells in mouse hippocampal slices (SC-CA1 pathway); assay: Electrophysiology: intracellular EPSC recordings from CA1 pyramidal cells in mouse hippocampal slices
Experimental: FIG. 3A is a graph showing the results of a glutamate release assay for CPD1 in mouse synaptosomes. FIG. 3B is a graph showing the results of a glutamate release potentiation assay. FIG. 3C and FIG. 3D provide graphs of electrophysiological recordings from the SC-CA1 pathway in mouse hippocampal slices. FIG. 3C is a graph comparing the changes in intracellular recordings of excitatory postsynaptic currents (EPSCs) as a result of contact with L-AP4 at a concentration of 0.5 mM, CPD 1 at a concentration of 1 μM, and CPD 1 at a concentration of 5 μM. FIG. 3D is a graph comparing the changes in intracellular recordings of EPSCs in mice with wild-type (WT) mGluR7 and mice with an mGluR7 knock-out contacted with CPD 1 at a concentration of 5 μM.
Intracellular recordings were made from CA1 pyramidal cells following SC stimulation in mouse hippocampal slices. Compounds were applied to the slices for 10 min, with recordings made over a 45 minutes period. mGluR7 KO mice were obtained from the Toronto Centre for Phenogenomics.

mGluR7 [2] = molecular target: T3, mGluR7 (Homo sapiens, UniProt Q14831); assay: Mode of action: cAMP assay in CHO-CRE-luc human mGluR7 cells in presence of orthosteric antagonist LY341495; design: expressed in transfected cells; conditions: FIG. 2C, 2D
T3 sequence (Q14831 35-915): as the sequence (Q68ED2 35-915) above, with T454S, P486A, N544D counted along it
Experimental: FIGS. 2A-2D are graphs of the results from in vitro cAMP assays in CHO-CRE-luc cells stably expressing human mGluR7 to determine the mode of action of CPD1. FIG. 2A provides the compound activity of non-selective agonist, L-AP4, with increasing concentrations of orthosteric antagonist, LY341495 (LY). FIG. 2B provides the compound activity of a positive allosteric modulator (PAM) compound, VU0422288, for the same concentrations of LY as shown in FIG. 2A.
as §1
The mode of action of the compound in Example 16 was determined by testing activity in the presence of the orthosteric antagonist LY341495 (LY).

mGluR7 [3] = molecular target: T3, mGluR7; assay: cAMP CRE-luciferase reporter gene assay (Steady Glo) in CHO-CRE-luc cells stably expressing human mGluR7; design: expressed in transfected cells
Experimental: as §1
The ability of the test compounds to activate mGluR7 was determined by their ability to reduce forskolin stimulated cAMP production. Compounds were assessed in a CRE-directed luciferase reporter gene assay, using a stable CHO cell line expressing the CRE-luc reporter and human mGluR7 genes. In this cell line, production of cAMP stimulated the transcription of the luciferase gene and luciferase activity was then measured in a luminescent enzyme assay (Steady Glo assay; Promega E2550). Activation of mGluR7 decreased the forskolin stimulated luminescence signal.
The day prior to the assay, compounds were serially diluted in DMSO (100× final assay concentration (FAC)), in 384-well plates which were then stored in the dark at room temperature (RT) until use. Cells were seeded at 12.5 k/well in white, clear bottom 384-well plates (Corning 3707) and left for one hour at RT followed by an overnight incubation (37° C.). The following day, the DMSO compound plate was diluted 1:20 (5×FAC) in Opti-MEM I (Life Technologies 11058021). The growth media was removed from the cell plate and replaced with 15 μl Opti-MEM I, followed by a 5 μl addition from the 5× compound plate and a fifteen minute incubation (37° C.). Forskolin (Sigma F3917) was then added to the wells (5 μl of 2.5 μM) and the plate was incubated for five hours (37° C.). During this incubation, the Steady Glo Substrate reagent was warmed to 37° C. Aliquots (11 ml; stored at −20° C.) of this reagent were prepared by dissolving the contents of 1 vial of lyophilised substrate in 100 ml Steady-Glo buffer. A 25 μl addition of the substrate was made to all wells and the plate was incubated for thirty minutes at RT, on a plate shaker (300 rpm; in the dark). Luminescence was then measured using the EnVision Multilabel Reader (Perkin Elmer).
Compound activity was examined using a 10-point, half log concentration-response range and each concentration was tested in duplicate wells. Luminescence values were normalised to ‘maximum’ (forskolin alone) and ‘minimum’ (forskolin in the presence of tool mGluR7 agonist) controls.

mGluR7 [4] = molecular target: T3, mGluR7; assay: Kinetic impedance assay (desensitization) in stable CHO-mGluR7 cells, response to tool activator CPD A after pre-treatment; conditions: pre-treatment, FIG. 1B
Experimental: Stable CHO-mGluR7 cells (DiscoverX) were pre-incubated with compounds (EC80, 1 h), washed and after 30 min, impedance changes upon addition of a tool mGluR7 activator (CPD A) were determined (Cellkey, Molecular Devices).

[5] = test system: mouse cortical synaptosomes; assay: Glutamate release assay in mouse cortical synaptosomes
Experimental: Stimulus induced glutamate release from mouse cortical synaptosomes was monitored using a fluorescence based glutamate dehydrogenase assay. Compounds were incubated for 1 or 10 min for the inhibition or potentiation modes respectively.

mGluR4 = mGluR4 (Homo sapiens, UniProt Q14833); assay: Selectivity HTRF cAMP assay in stable CHO-mGluR4 cells
Sequence of mGluR4 (Q14833 33-912): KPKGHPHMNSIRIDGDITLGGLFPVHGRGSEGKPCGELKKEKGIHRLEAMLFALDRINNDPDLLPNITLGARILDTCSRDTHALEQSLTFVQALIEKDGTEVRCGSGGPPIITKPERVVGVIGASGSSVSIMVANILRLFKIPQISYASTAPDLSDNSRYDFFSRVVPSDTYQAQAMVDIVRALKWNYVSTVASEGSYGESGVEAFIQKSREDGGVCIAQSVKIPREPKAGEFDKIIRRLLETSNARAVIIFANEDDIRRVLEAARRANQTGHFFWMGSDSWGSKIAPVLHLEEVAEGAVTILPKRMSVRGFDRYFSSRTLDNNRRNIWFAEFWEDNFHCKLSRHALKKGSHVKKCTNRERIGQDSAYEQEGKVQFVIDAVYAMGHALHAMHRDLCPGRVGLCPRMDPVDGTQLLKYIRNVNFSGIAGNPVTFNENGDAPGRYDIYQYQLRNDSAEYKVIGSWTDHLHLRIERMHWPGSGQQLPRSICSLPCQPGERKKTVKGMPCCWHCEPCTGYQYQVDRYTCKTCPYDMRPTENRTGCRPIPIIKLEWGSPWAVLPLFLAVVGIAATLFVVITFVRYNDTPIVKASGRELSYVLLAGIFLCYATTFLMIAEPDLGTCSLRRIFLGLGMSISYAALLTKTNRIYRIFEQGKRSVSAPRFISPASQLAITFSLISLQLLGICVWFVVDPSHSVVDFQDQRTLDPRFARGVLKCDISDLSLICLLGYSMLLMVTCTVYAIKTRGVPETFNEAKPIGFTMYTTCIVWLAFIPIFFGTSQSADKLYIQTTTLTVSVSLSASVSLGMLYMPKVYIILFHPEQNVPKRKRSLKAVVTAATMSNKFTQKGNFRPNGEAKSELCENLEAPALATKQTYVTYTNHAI
Experimental: as §1, §2

## C[C@H](C(=O)NC1COc2ccccc2C1S(C)(=O)=O)c1ccc(F)cc1 (single isomer, unassigned) [Example 16]
mGluR8; FIG. 1A
  activity at mGluR8 (in words): no activity
mGluR8; tested ≤10 μM
  EC50 mGluR8: inactive
  Emax mGluR8: inactive
Mouse mGluR7; FIG. 1A
  agonist activity at mGluR7, mouse samples (in words): full agonist
Mouse mGluR7; mean ± standard deviation, n=2
  EC50: 1.8 ± 3.5 nM
  Emax mGluR7 (mouse): 100 ± 0.1 % control
[1]; mGluR7 KO mice, 5 μM, FIG. 3D
  activity on EPSCs in slices from mGluR7 KO mice (in words): inactive
[1]; wild-type mouse hippocampal slices, FIG. 3C
  effect on excitatory postsynaptic currents (EPSCs) amplitude (in words): bimodal effect
mGluR7 [2]
  effect of increasing LY341495 concentrations on compound activity (in words): unaffected
mGluR7 [3]; FIG. 1A
  agonist activity at mGluR7, human samples (in words): full agonist
mGluR7 [3]; mean ± standard deviation, n=2
  Emax mGluR7 (human): 100 ± 1.8 % control
mGluR7 [3]; mean ± standard deviation, n=2, read-out: EC50 mGluR7 (human)
  EC50: 6.9 ± 0.8 nM
mGluR7 [3]; reduction of forskolin stimulated cAMP (luminescence), CHO CRE-luc human mGluR7, read-out: EC50
  EC50: 7 nM
mGluR7 [4]
  effect of pre-treatment on response to CPD A (in words): did not alter
[5]; Mus musculus, 1 min, short incubation (1 minute), FIG. 3A, read-out: EC50 of reduction of glutamate release
  EC50: 34 nM
[5]; longer exposure (10 minutes), FIG. 3B
  enhancement of glutamate release: 92%
[5]; short incubation (1 minute), FIG. 3A
  reduction of glutamate release: 30%
mGluR4; FIG. 1A
  activity at mGluR4 (in words): no activity
mGluR4; tested ≤10 μM
  EC50 mGluR4: inactive
  Emax mGluR4: inactive
